{"source": "patent US11274079B2", "about": "(DALIAN INSTITUTE OF CHEMICAL PHYSICS, CHINESE ACADEMY OF …, priority 2018, dated 2022)", "key": {"M1 receptor": {"molecular_target": "T1, M1 receptor (Homo sapiens, UniProt P11229)", "T1 construct": "expressed in transfected cells; host or cells: CHO-K1", "T1 sequence (P11229 1-460)": "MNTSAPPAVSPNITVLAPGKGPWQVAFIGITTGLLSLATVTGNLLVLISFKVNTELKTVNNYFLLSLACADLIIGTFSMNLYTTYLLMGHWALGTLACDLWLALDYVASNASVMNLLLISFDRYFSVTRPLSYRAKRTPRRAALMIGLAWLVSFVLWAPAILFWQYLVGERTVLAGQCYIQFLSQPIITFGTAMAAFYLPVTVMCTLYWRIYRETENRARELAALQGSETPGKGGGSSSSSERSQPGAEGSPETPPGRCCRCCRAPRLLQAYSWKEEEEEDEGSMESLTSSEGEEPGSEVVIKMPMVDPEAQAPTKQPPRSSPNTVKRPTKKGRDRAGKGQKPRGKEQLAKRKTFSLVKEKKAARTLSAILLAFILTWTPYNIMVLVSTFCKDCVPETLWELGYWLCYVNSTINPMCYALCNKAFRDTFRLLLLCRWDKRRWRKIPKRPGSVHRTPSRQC", "experiment": "DMR assay, antagonism of acetylcholine in CHO-K1 cells stably transfecting the M1 receptor", "type": "cell-based", "details": "for IC50: CHO-K1-M1 cells, DMR, acetylcholine 1 μM, 1 h pretreatment, time point 5 min; for antagonistic activity against the M1 receptor, in words: structure-activity comparison with parent compound", "experimental": "(§1) The present invention relates to the antagonistic activity of the compound against the muscarinic receptor, which is primarily assessed by a cell-level dynamic mass redistribution (DMR) assay method. All tests are carried out on Epic platform, wherein the target model of the muscarinic receptor M1 is the CHO-K1 ceil model stably transfecting the M1 receptor, the target model of M3 is the HT-29 cell model endogenously highly expressing the M3 receptor, and the selected probe molecule is acetylcholine. Tire probe molecule acetylcholine is dissolved in water, while all other compounds are dissolved in DMSO.\n(§2) The inoculated cell plate is placed in a cell incubator for culture for 12 h until the cell growth and fusion degree reaches about 95%, and the activity assay is carried out. The culture medium is sucked from the cultured ceils, the buffer salt specified by the test is added with a volume of 30 μL per orifice and is stabilized for 1 h. After the baseline is stable, a 2-min baseline is established, and different concentrations of compounds to be tested are added to test the cultured cells for 1 h. After the cells are pretreated with the compounds to be tested for 1 h, the 2-min baseline is re-established, and acetylcholine having a concentration of 1 μM is added to test the cultured cells for 1 h."}, "M3 receptor": {"molecular_target": "T2, M3 receptor (Homo sapiens, UniProt P20309)", "T2 construct": "HT-29 cell model endogenously highly expressing the M3 receptor; endogenous in cells; host or cells: HT-29", "T2 sequence (P20309 whole entry)": "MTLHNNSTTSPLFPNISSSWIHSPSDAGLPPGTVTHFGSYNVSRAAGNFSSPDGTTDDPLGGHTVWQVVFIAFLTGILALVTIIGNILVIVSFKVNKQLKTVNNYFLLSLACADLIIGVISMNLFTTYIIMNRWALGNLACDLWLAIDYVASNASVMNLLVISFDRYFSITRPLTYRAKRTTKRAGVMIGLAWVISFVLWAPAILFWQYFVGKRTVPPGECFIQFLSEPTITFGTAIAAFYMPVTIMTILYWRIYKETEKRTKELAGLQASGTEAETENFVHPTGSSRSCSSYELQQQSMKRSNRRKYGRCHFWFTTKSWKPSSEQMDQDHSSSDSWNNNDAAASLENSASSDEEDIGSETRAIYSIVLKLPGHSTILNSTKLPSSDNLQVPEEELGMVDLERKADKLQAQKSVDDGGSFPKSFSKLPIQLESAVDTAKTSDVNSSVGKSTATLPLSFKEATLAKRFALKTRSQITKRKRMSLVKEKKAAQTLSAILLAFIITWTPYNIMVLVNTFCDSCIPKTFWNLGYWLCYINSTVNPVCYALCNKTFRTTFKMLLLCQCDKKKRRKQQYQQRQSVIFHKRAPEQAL", "experiment": "DMR assay, antagonism of acetylcholine in HT-29 cells endogenously expressing the M3 receptor", "type": "cell-based", "details": "for IC50: HT-29 cells, DMR, acetylcholine 16 μM, 1 h pretreatment, time point 30 min; for antagonistic activity against the M3 receptor, in words: structure-activity comparison with parent compound", "experimental": "as §1\nas §2, with “20” for “12”, “cells,” for “ceils,”, “h.” for “h. After the cells are pretreated with the compounds to be tested for 1 h, the 2-min baseline is re-established, and acetylcholine having a concentration of 1 μM is added to test the cultured cells for 1 h.”"}, "[1]": {"test_system": "isolated tracheal smooth muscle", "experiment": "Carbachol-induced contraction of isolated tracheal strip", "details": "Cavia porcellus, read-out: IC50, diastolic effect on isolated tracheal smooth muscle", "source_text": "1. Experimental Materials\n2. Preparation of Tracheal Strip\nThe guinea pig is put to death by hammering it on the head, the chest cavity is quickly opened, and trachea is carefully isolated. […] The connective tissue and fat around the trachea are gently removed, and the trachea segment is quickly suspended and cut into tracheal strips with a blade (2-3 mm in width and 20 mm in length). […] The upper end of the tracheal strip is connected to a muscle tension transducer, and the load is adjusted to 1.5 g. The biological signal processing system is used to record the changes in muscular tension of tracheal smooth muscle. The perfusate is replaced once every 15 min, and the experiment is started after the tension is stabilized for 1 h. After each experiment, the smooth muscle is rinsed 3 to 5 times, and the next experiment is carried out after stabilization to the baseline.\n3. Effects of Compounds Tested on Contraction of Isolated Tracheal Strip in Guinea Pig\nAfter incubation of isolated tracheal for 1 h, 10 μm/L of carbachol is added to induce the minimum concentration (the concentration obtained from the dose-effect curve of carbachol) of the maximum tracheal smooth muscle contraction, and the changes in tension of the tracheal strip within 5 min are recorded. When the tension of the tracheal smooth muscle reaches the highest point, the compounds tested with a concentration of 1 nm/L are added, and the changes in tension of the tracheal strip within 5 min are recorded. […] Then, the concentration difference is decreased, that is, the concentration is increased by three or four times to repeat the above administration, which makes the tension decrease continuously to the base value (initial load). The changes in tension of the tracheal stop within 5 min are recorded. The dose-effect relationship between the compounds tested and the contractile activity of the isolated tracheal smooth muscle in the guinea pig is obtained. The curve of the changes in tension of the tracheal smooth muscle in each group is recorded and the inhibition rate is calculated. After repeated experiments, IC50 value of each compound tested is calculated by taking points respectively.\nThe dose-effect relationship between solvent (DMSO) control group and the contractile activity of the isolated tracheal smooth muscle in the guinea pig is recorded. Inhibition Rate=(Tension before Administration−Tension after Administration)/Tension before Administration"}, "guinea pigs": {"test_system": "guinea pigs", "experiment": "Acetylcholine chloride/histamine spray-induced asthma, incubation period", "type": "in vivo, guinea pig", "details": "for asthma incubation period: 0.2 mM in normal saline sprayed 10 min, challenge after 10 min, recorded as 240 s if no convulsion and fall; for efficacy in asthma model, in words: 0.2 mM spray", "experimental": "On the first day, guinea pigs are placed in a 38×38×38 cm (about 55 L) of home-made container with an atomizing nozzle having a diameter of about 3 cm above the side wall. Ultrasonic atomizer (YUWELL, model 402AI) is used to spray normal saline containing acetylcholine chloride (20 g/L) and histamine (1 g/L) for 15 s. The incubation period of asthma of guinea pigs (also is called asthma incubation period, which is the time from the end of the spray to asthma attack, extreme breathing difficulty until convulsion and fall) is recorded after the cessation of spraying. Animals with an incubation period of less than 120 s are qualified sensitive animals.\n2. Experimental Processes\nOn the second day, the qualified animals are selected for experiments, wherein one group (comprising 4 guinea pigs) is used as the control group, one group (comprising 4 guinea pigs) is experimented with positive medicine […] and one group (comprising 10 guinea pigs) is experimented with the drug to be tested. The animals are placed in a container, and sprayed with normal saline, tiotropium bromide and the compound to be tested. Both tiotropium bromide and the compound to be tested are soluble in normal saline at a concentration of 0.2 mM. After spraying for 10 min, the guinea pigs are taken out and put into another container of the same size. After 10 min, normal saline containing acetylcholine chloride (20 g/L) and histamine (1 g/L) is sprayed into the container for 15 s. The incubation periods of asthma of the guinea pigs are observed and recorded. If there is no convulsion and fall after 240 s, the incubation period is recorded as 240 s."}}, "data": [{"molecule": "C[N+]1(C)CCCCC1CC(c1ccccc1O)c1ccccc1O", "note": "(racemic) [I-3-Br, 2-[2,2-bis(2-hydroxy-phenyl)ethyl]-N,N-dimethylpiperidine Bromide]", "values": [{"measurement": "IC50", "setting": "M1 receptor", "value": "0.0234 ± 0.0066", "unit": "µM"}, {"measurement": "IC50", "setting": "M3 receptor", "value": "0.0154 ± 0.0029", "unit": "µM"}, {"measurement": "IC50", "setting": "[1]", "value": 0.0041, "unit": "µM"}]}, {"molecule": "Cc1ccc(O)c(C(CC2CCCC[N+]2(C)C)c2ccccc2)c1", "note": "(single isomer, unassigned) [I-4a-Br, 2-[2-(2-hydroxy-5-methyl-phenyl)-phenethyl]-N,N-dimethylpiperidine Bromide]", "values": [{"measurement": "IC50", "setting": "M1 receptor", "value": "0.0362 ± 0.0061", "unit": "µM"}, {"measurement": "IC50", "setting": "M3 receptor", "value": "0.0355 ± 0.0139", "unit": "µM"}, {"measurement": "IC50", "setting": "[1]", "value": 0.0133, "unit": "µM"}]}, {"molecule": "C[N+]1(C)CCCCC1CC(c1ccccc1)c1ccccc1O.[Br-]", "note": "(stereo not shown) [I-2a-1-Br, 2-[2-(2-hydroxy-phenyl)-phenethyl]-N,N-dimethylpiperidine Bromide]", "values": [{"measurement": "IC50", "setting": "M1 receptor", "value": "0.0088 ± 0.0026", "unit": "µM"}, {"measurement": "IC50", "setting": "M3 receptor", "value": "0.0057 ± 0.0011", "unit": "µM"}, {"measurement": "asthma incubation period", "setting": "guinea pigs", "value": "228.9 ± 4.7", "unit": "s"}, {"measurement": "efficacy in asthma model, in words", "setting": "guinea pigs", "value": "good efficacy"}]}, {"molecule": "C[N+]1(C)CCCCC1CC(c1ccccc1)c1ccccc1O", "note": "(stereo not shown) [I-2a-Br, 2-[2-(2-hydroxy-phenyl)-phenethyl]-N,N-dimethylpiperidine Bromide]", "values": [{"measurement": "IC50", "setting": "M1 receptor", "value": "0.0538 ± 0.0046", "unit": "µM"}, {"measurement": "IC50", "setting": "M3 receptor", "value": "0.0338 ± 0.0036", "unit": "µM"}, {"measurement": "IC50", "setting": "[1]", "value": 0.0064, "unit": "µM"}]}, {"molecule": "C[N+]1(C)CCCCC1CC(c1ccccc1O)c1ccccc1O.[Br-]", "note": "(stereo not shown) [I-3-1-Br, 2-[2,2-bis(2-hydroxy-phenyl)ethyl]-N,N-dimethylpiperidine Bromide]", "values": [{"measurement": "IC50", "setting": "M1 receptor", "value": "0.0185 ± 0.0036", "unit": "µM"}, {"measurement": "IC50", "setting": "M3 receptor", "value": "0.006 ± 0.0011", "unit": "µM"}, {"measurement": "asthma incubation period", "setting": "guinea pigs", "value": 240, "unit": "s"}, {"measurement": "efficacy in asthma model, in words", "setting": "guinea pigs", "value": "good efficacy"}]}, {"molecule": "C[N+]1(C)CCCCC1CC(c1ccccc1O)c1ccccc1O.[Br-]", "note": "(stereo not shown) [I-3-2-Br, 2-[2,2-bis(2-hydroxy-phenyl)ethyl]-N,N-dimethylpiperidine Bromide]", "values": [{"measurement": "IC50", "setting": "M1 receptor", "value": "0.0437 ± 0.0153", "unit": "µM"}, {"measurement": "IC50", "setting": "M3 receptor", "value": "0.011 ± 0.0036", "unit": "µM"}, {"measurement": "asthma incubation period", "setting": "guinea pigs", "value": "233.1 ± 21.8", "unit": "s"}, {"measurement": "efficacy in asthma model, in words", "setting": "guinea pigs", "value": "good efficacy"}]}, {"molecule": "Cc1ccc(O)c(C(CC2CCCC[N+]2(C)C)c2ccccc2)c1.[Br-]", "note": "(stereo not shown) [I-4a-1-Br, 2-[2-(2-hydroxy-5-methyl-phenyl)-phenethyl]-N,N-dimethylpiperidine Bromide]", "values": [{"measurement": "IC50", "setting": "M1 receptor", "value": "0.0288 ± 0.0113", "unit": "µM"}, {"measurement": "IC50", "setting": "M3 receptor", "value": "0.0393 ± 0.0109", "unit": "µM"}, {"measurement": "asthma incubation period", "setting": "guinea pigs", "value": 240, "unit": "s"}, {"measurement": "efficacy in asthma model, in words", "setting": "guinea pigs", "value": "good efficacy"}]}, {"molecule": "Cc1ccc(O)c(C(CC2CCCC[N+]2(C)C)c2ccccc2F)c1", "note": "(stereo not shown) [I-7, 2-[2-(2-fluorophenyl)-2-(2-hydroxy-5-methyl-phenyl)-ethyl]-N,N-dimethylpiperidine Bromide]", "values": [{"measurement": "IC50", "setting": "M1 receptor", "value": "0.32 ± 0.02", "unit": "µM"}, {"measurement": "IC50", "setting": "M3 receptor", "value": "0.103 ± 0.01", "unit": "µM"}, {"measurement": "IC50", "setting": "[1]", "value": 0.0334, "unit": "µM"}]}, {"molecule": "C[N+]1(C)CCCCC1CC(c1ccccc1)c1cc(F)ccc1O.[Br-]", "note": "(stereo not shown) [I-10a-1, 2-[2-(2-hydroxy-5-fluorophenyl)-phenylethyl]-N,N-dimethylpiperidine bromide]", "values": [{"measurement": "IC50", "setting": "M3 receptor", "value": "0.037 ± 0.0043", "unit": "µM"}, {"measurement": "asthma incubation period", "setting": "guinea pigs", "value": 240, "unit": "s"}, {"measurement": "efficacy in asthma model, in words", "setting": "guinea pigs", "value": "good efficacy"}]}, {"molecule": "Cc1ccc(OC(=O)c2ccccc2)c(C(CC2CCCCN2C)c2ccccc2)c1", "note": "(stereo not shown) [II-25, 2-[2-(2-benzoate Group-5-methyl-phenyl)-phenethyl]-N-methylpiperidine]", "values": [{"measurement": "IC50", "setting": "M1 receptor", "value": "1.6 ± 0.2", "unit": "µM"}, {"measurement": "antagonistic activity against the M1 receptor, in words", "setting": "M1 receptor", "value": "the activity is greatly decreased"}, {"measurement": "IC50", "setting": "M3 receptor", "value": "2.97 ± 0.7", "unit": "µM"}, {"measurement": "antagonistic activity against the M3 receptor, in words", "setting": "M3 receptor", "value": "the activity is greatly decreased"}]}, {"molecule": "Cc1ccc(S(=O)(=O)Oc2ccc(C)cc2C(CC2CCCCN2C)c2ccccc2)cc1", "note": "(stereo not shown) [II-26, 2-[2-(2-methylp-toluenesulfonategroup-5-methyl-phenyl)-phenethyl]-N-methylpiperidine]", "values": [{"measurement": "antagonistic activity against the M1 receptor, in words", "setting": "M1 receptor", "value": "the activity is greatly decreased"}, {"measurement": "IC50", "setting": "M3 receptor", "value": "2.62 ± 0.425", "unit": "µM"}, {"measurement": "antagonistic activity against the M3 receptor, in words", "setting": "M3 receptor", "value": "the activity is greatly decreased"}]}, {"molecule": "C[N+]1(C)[C@@H]2C[C@@H](OC(=O)C(O)(c3cccs3)c3cccs3)C[C@H]1[C@@H]1O[C@@H]12.[Br-]", "note": "[Tiotropium Bromide, reference compound]", "values": [{"measurement": "asthma incubation period", "setting": "guinea pigs", "value": "238.9 ± 5.0", "unit": "s"}, {"measurement": "IC50", "setting": "[1]", "value": 0.033, "unit": "µM"}]}]}
